Data set [1] has as its system Cotton Boll Weevil. The data set is described as follows: Cotton Boll Weevil, treated cotton cotyledon, 2-day mortality. Format: in vivo, Anthonomus grandis Boheman. As to conditions: 48 h, 2 days, read-out: % Kill, Cotton Boll Weevil. The method, then: Cotton Boll Weevil -- Anthonomus grandis Boheman
A cotton plant with cotyledons expanded is dipped for 3 seconds with agitation in 35/65% aqueous acetone mixture containing 100 ppm. of test compound and set in the hood to dry. One cotyledon is removed from the plant and placed in a 4-inch petri dish containing a moist filter paper on the bottom and 10 adult weevils. After 2 days at 80°F., and 50% r.h., mortality counts are made, prodding each insect to distinguish dead ones from those "playing dead."

In data set [2] the test system is Cotton Boll Weevil. The data set is described as follows: Soil Systemic Insecticide test on cotton, Cotton Boll Weevil. Format: in vivo, Anthonomus grandis Boheman. As to conditions: 48 h; 100 ppm in soil; cotton leaves after three weeks; 2 days; read-out: % Kill, Systemic Insecticide, Cotton Boll Weevil. Here is the method:
Soil Systemic Insecticide Tests
Corn and cotton seed (three seeds each) are planted in treated soil (containing about 100 ppm. of the compound). Thirty milliliters of treated soil are placed in a peat container 5 × 5 × 5.5 cm., and three seeds each of corn and cotton planted. The containers are filled with an additional 30 ml. of treated soil. The treatments are removed to the greenhouse maintained about 26°C. without supplementary light. Water is supplied as needed. After three weeks, foliage of the corn is clipped and placed in glass petri dishes (90 mm. × 10 mm.) with moist filter (9 cm. Whatman No. 1) paper and ten third-instar southern armyworm (Spodoptera eridania Cramer) larvae about 8 mm. long. The dishes are covered and placed in the holding room with constant light at 26.7°C. and 60% r.h. for 2 days, when mortality counts are made.
The cotyledonary leaves of the cotton are clipped after three weeks and placed in glass petri dishes (90 mm. × 10 mm.) with moist filter (9 cm. Whatman No. 1) paper and ten adult boll weevils (Anthonomus grandis Boheman). The dishes are covered, placed in the holding room with constant light at 26.7°C. and 60% r.h. for 2 days, when mortality counts are made.

The test system of data set [3] is Western Potato Leafhopper. Put plainly: Western Potato Leafhopper, dipped lima bean leaf. Format: in vivo, Empoasca abrupta Say. As to conditions: 48 h, 2 days, read-out: % Kill, Western Potato Leafhopper. The source says:
Western Potato Leafhopper -- Empoasca abrupta Say
A Sieva lima bean plant with the primary leaf expanded to 3 to 4 inches is dipped into a 35/65% water/acetone mixture containing 100 ppm. of test compound and set in the hood to dry. A 1-inch piece of the tip of one leaf is cut off and placed in a 4-inch petri dish with a moist filter paper in the bottom. From three to 10 second-instar nymphs are tapped from the culture plants into the test dish and rapidly covered. Mortality counts are made after 2 days at 80°F., and 50% r.h.

Data set [4] concerns Malaria Mosquito. Put plainly: Malaria Mosquito adult test, treated slide. Format: in vivo, Anopheles quadrimaculatus Say. Particulars: Anopheles quadrimaculatus, 24 h, adults, one day, read-out: % Kill, Malaria Mosquito. Here is the method: Malaria Mosquito -- Anopheles quadrimaculatus Say -- Adult Test
Ten ppm. acetone solutions of test compounds are poured into wide-mouth 2-ounce jars each containing a microscope slide. The slides are removed from the test solution with forceps and laid horizontally to dry on a wide-mouth 4-ounce bottle. When dry, they are placed in the same 4-ounce bottle and 10 4-to 5-day-old mosquitoes of mixed sexes are added to each bottle. A piece of cotton gauze held on by an elastic band serves as a lid and wad of cotton soaked in 10% honey solution serves as food. Mortality counts are made after one day at 80°F., 50% r.h.

Data set [5] relates to Housefly. The data set is described as follows: Housefly feeding test in sugar water. It is filed as in vivo, Musca domestica Linneaus. As to conditions: Musca domestica; 5 ppm in sugar water; counts after 1 day and 3 days; read-out: % Kill, Housefly. The method, then: Housefly -- Musca domestica Linneaus
Groups of 25 adult female houseflies three to 5 days old are lightly anesthetized with CO2, placed in wide-mouthed pint mason jars, and covered with a screen cap. The test compound is a 100 ppm. 35/65% water/acetone solution. Two milliliters of this is pipetted into a 10-dram vial and diluted to 40 ml. with 10% sugar solution, giving a final concentration of 5 ppm. in sugar water. The mouth of the vial is covered with a single layer of cheesecloth, inverted and placed on the screen cap of the fly jar, so that the flies can feed on the solution through the screen. Mortality counts are made after 1 day and 3 days at 80°F., 50% r.h.

The nature of data set [6]: Mammalian toxicity, LD50 in mice. Format: in vivo, male albino mice of the CFI strain. As to conditions: mouse, in vivo; male albino mice, corn oil, 0.5 ml./kg. Here is the method: (§1) For the tests reported in Table II, 20 male albino mice of the CFI strain, weighing approximately 18 grams to 20 grams are selected. The phosphates are readied for administration by preparing a solution or dispersion in corn oil (Mazola), the concentration of which is adjusted so that the total volume of the dose is 0.5 ml./kg. in every case. The initial solution is prepared by deciding upon the maximum dosage in mg./kg. to be administered and preparing 10 ml. of this solution of such a concentration that the desired dosage in mg./kg. is delivered when 0.5 ml. of the solution is administered for 20 grams of mouse body weight. Serial dilutions differing by a factor of two are then prepared for each lower dosage level. LD50 stands for the lethal dose in mg./kg. which kills 50% of the mice.

The subject of data set [7] is mice. The data set is described as follows: Mammalian toxicity, LD50 in mice. Particulars: versus O,O-diethyl S-(tert-butylsulfinyl)methyl phosphorodithioate. It is filed as in vivo, male albino mice of the CFI strain. The method, then:
as §1

Data set [8] has as its system insects. The data set is described as follows: Insecticidal activity compared with art compound. It is filed as in vivo. Particulars: versus O,O-diethyl S-(tert-butylsulfinyl)methyl phosphorodithioate.

We go through 4 molecules from patent US3939263A, “Methods of combatting insects and acarina using oxygenated derivatives of S-(tert-bulythio)methyl O,O-diethyl phosphorodithioate and phosphorothioate” (priority 1974, dated 1976).

Each structure is given as a SMILES string.

By LD50 is commonly meant the dose at which mortality reaches 50%. A high value points to lower toxicity. Turning to `CCOP(=O)(OCC)SCS(=O)(=O)C(C)(C)C` [O,O-diethyl S-(tert-butylsulfonyl)methyl Phosphorothioate], the figures for the mortality at 100 ppm in data set [1], in data set [2] and in data set [3] were 90%, 100% and 100%, respectively. For the same molecule, the mortality at 10 ppm in data set [3] turned out to be 100%; in data set [4] it was 50%. Besides, the mortality at 1 ppm in data set [4] came to 0%. Besides, the mortality at 5 ppm in data set [5] worked out at 100%. Besides, the LD50 in data set [6] worked out at 3.4 mg/kg.

As for `CCOP(=S)(OCC)SC[S+]([O-])C(C)(C)C` (stereo not drawn) [O,O-diethyl S-(tert-butylsulfinyl)methyl phosphorodithioate, reference compound], the mortality at 100 ppm in data set [1], in data set [2] and in data set [3] was 100% in each case. Also, the mortality at 10 ppm in data set [3] is 100%; in data set [4], 80%. The mortality at 1 ppm in data set [4] worked out at 0%. In addition, the mortality at 5 ppm in data set [5] was determined as 100%. Also, the 50% lethal dose (LD50) in data set [6] stood at 3.4 mg/kg.

With `CCOP(=S)(OCC)SCS(=O)(=O)C(C)(C)C` [O,O-diethyl S-(tert-butylsulfonyl)methyl Phosphorodithioate], the mortality at 100 ppm in data set [1] came out at 90%. The mortality at 100 ppm in data set [2] amounted to 90%. Besides, in data set [4], the mortality at 1 ppm was 50% and the mortality at 10 ppm was 100%. The mortality at 5 ppm in data set [5] was 100%. This molecule showed an LD50 in data set [6] of 14 mg/kg. In data set [7], the “toxicity to mammals (mice) relative to art compound” value is listed as “much less toxic to mammals (mice) than the art compound”. The “insecticidal activity relative to art compound” value in data set [8] was “equal to, and in some cases superior to, this art compound”.

On to `CCOP(=O)(OCC)SC[S+]([O-])C(C)(C)C` (stereo not drawn) [O,O-diethyl S-(tert-butylsulfinyl)methyl Phosphorothioate], for which the mortality at 100 ppm in data set [1] came out at 90%; in data set [2], 100%; in data set [3], 100%. The mortality at 10 ppm in data set [3] and in data set [4] was 100% throughout. Also, the mortality at 1 ppm in data set [4] was found to be 40%. The mortality at 5 ppm in data set [5] is 100%. In data set [6], this molecule had an LD50 of 1.1 mg/kg.
